Assay results from publication PMC10835127, “Viruses traverse the human proteome through peptide interfaces that can be biomimetically leveraged for drug discovery” (Proceedings of the National Academy of Sciences of the …, 2024).

Tests used:
[1] = Cryopreserved hepatocyte stability, mouse; format: in vitro ADME; conditions: cryopreserved hepatocytes, murine hepatocytes, read-out: CLint mHep
Protocol: (§1) Cryopreserved hepatocyte stability
(§2) Tested compounds (1 μM) were incubated with human cryopreserved hepatocytes (pool of 5) (IVT Celsis) and mouse cryopreserved hepatocytes (IVT Celsis). Hepatocytes (1, 0.5 or 0.25 x10^6 cells/mL, Williams’ Medium E (WME) with 4 mM L-glutamine and 2 mM magnesium sulphate) containing tested compound (final substrate concentration 1 μM; final DMSO concentration 0.25 %) were preincubated at 37 °C. The final incubation volume was 500 μl. 3 species-specific control compounds were included with each species. At 7 time points (0, 10, 20, 40, 60, 90, and 120 min), reactions were stopped by transferring 50 μl of the incubation mixture into 0.5 μM carbamazepine in cold acetonitrile. Tested compound concentrations were analyzed by LC-MS/MS and the resulting data were used to determine the half-life and intrinsic clearance of the compound in each species. […]

[2] = Cryopreserved hepatocyte stability, human; format: in vitro ADME; conditions: cryopreserved hepatocytes, read-out: CLint hHep
Protocol: as §1, §2

## O=C(Nc1scc(C2CCc3ccccc3C2)c1C(=O)O)c1ccccc1 (centres unmarked) [dEF3122]
[1]
  hepatocyte CLint at 1 µM: < 5 µL/min/1e6 cells
[2]
  hepatocyte CLint at 1 µM: 19 µL/min/1e6 cells
